Measured values as given in patent US7087620B2, “Liquid pharmaceutical formulations containing 3,7-diazabicyclo[3,3,1]nonane compounds and methods of treatment relating to anti-arrhythmic events” (Solvay Pharmaceuticals GmbH, priority 2002, dated 2006).

Legend:
[1] = test system: patients with atrial fibrillation; assay: Placebo-controlled ascending dose study of intravenous tedisamil: conversion to normal sinus rhythm, patients with atrial fibrillation; format: in vivo, human; conditions: for Conversion to NSR at any time within 2.5 hrs after the start of infusion (patients converted out of total) / Conversion to NSR at any time within 2.5 hrs and remaining in NSR until 2.5 hrs after the start of infusion (patients out of total) / Conversion to NSR at any time within 2.5 hrs and remaining in NSR until 2.5 hrs after the start of infusion (percentage of patients) / Conversion to NSR at any time within 2.5 hrs and remaining in NSR until 24 hrs after the start of infusion (patients out of total) / Conversion to NSR at any time within 2.5 hrs and remaining in NSR until 24 hrs after the start of infusion (percentage of patients) / Conversion to NSR at any time within 24 hrs after the start of infusion (patients out of total) / Conversion to NSR at any time within 24 hrs after the start of infusion (percentage of patients) / Conversion to NSR at any time within 24 hrs and remaining in NSR until 24 hrs after the start of infusion (patients out of total) / Conversion to NSR at any time within 24 hrs and remaining in NSR until 24 hrs after the start of infusion (percentage of patients): patients with atrial fibrillation; for Percentage of patients converted to normal sinus rhythm at any time within 2.5 hours after the initiation of the infusion: patients with atrial fibrillation taking beta-blockers
Protocol: (§1) A Multi-Center, Double-Blind, Randomized, Placebo-Controlled, Sequential Ascending Dose Groups Study to evaluate the Efficacy and Safety of Intravenous Tedisamil in the Rapid Conversion to Normal Sinus Rhythm in Patients with Atrial Fibrillation or Flutter was performed.
(§2) • Tedisamil (0.4 mg/kg body weight) • Tedisamil (0.6 mg/kg body weight) • Placebo • Dosages were given as a 30 minute intravenous infusion regimen. 1. Study Design
(§3) This multicenter trial was a double-blind, randomized, placebo-controlled, ascending dose groups study comparing the efficacy and safety of intravenous tedisamil treatment versus placebo in symptomatic patients with atrial fibrillation or flutter (>3 hours and <48 hours). The primary efficacy endpoint of this study was the termination of atrial fibrillation or flutter (for at least 60 seconds) within 2.5 hours after start of the infusion.
(§4) Following screening and baseline assessments, eligible patients were randomized to tedisamil or placebo with a sequential dose escalation approach. In the first stage, patients received 0.4 mg tedisamil/kg body weight or placebo over a 30 minutes infusion period, with half the dose infused during the first 10 minutes and half the dose infused over the remaining 20 minutes. After interim safety evaluation, in the second stage, patients received 0.6 mg tedisamil/kg body weight or placebo, with the same infusion regimen.
(§5) Patients were discharged from the telemetry unit 24 hours post infusion and safety follow up was to be obtained after 28 days. Blinded reviews of 12-lead ECGs (including 60 seconds rhythm strip) and 24 hour Holters to adjudicate the clinical endpoint (conversion to normal sinus rhythm) were performed centrally according to standard guidelines.
(§6) Tedisamil dihydrochloride, 0.4 mg/kg body weight, 0.6.mg/kg body weight was administered intravenously. The total infusion time was 30 minutes, with half the dose infused within 10 minutes, and half the dose infused within the remaining 20 minutes.
(§7) The percentage of patients converted to normal sinus rhythm (for at least 60 seconds) at any time within 2.5 hours after the initiation of the infusion of study drug.
6.1.2 Secondary Efficacy • The percentage of patients converted to normal sinus rhythm (for at least 60 seconds) at any time within 2.5 hrs and remaining in sinus rhythm until 2.5 hours after initiation of the intravenous infusion of tedisamil versus placebo. • The percentage of patients converted to normal sinus rhythm (for at least 60 seconds) at any time within 24 hours after initiation of the intravenous infusion of tedisamil versus placebo. • The percentage of patients converted to normal sinus rhythm (for at least 60 seconds) at any time within 24 hrs and remaining in sinus rhythm until 24 hours after initiation of the intravenous infusion of tedisamil versus placebo. • The percentage of patients converted to normal sinus rhythm (for at least 60 seconds) at any time within 2.5 hrs and remaining in sinus rhythm until 24 hours after initiation of the intravenous infusion of tedisamil versus placebo. • The time to conversion after the start of the infusion of tedisamil versus placebo. • The dose- and concentration-response relationships of tedisamil versus placebo.
The intent-to-treat patient sample was analyzed for efficacy. All tests were two-sided and a p-value <0.05 was considered significant. Differences in percentages of conversion were compared among the treatment groups using the Pearson chi-square statistic. Safety analysis was conducted on the safety patient sample. Numbers and percentages of patients with adverse events were calculated for each treatment group, using MedDRA preferred terms and body systems. Descriptive statistics were summarized by treatment group for changes from baseline in QT, heart rate and blood pressure. […]

[2] = test system: patients with atrial fibrillation or flutter; assay: Placebo-controlled ascending dose study of intravenous tedisamil: conversion to normal sinus rhythm, overall (atrial fibrillation or flutter); format: in vivo, human; conditions: for Conversion to NSR at any time within 2.5 hrs after start of infusion (%) / Conversion to NSR at any time within 2.5 hrs after start of infusion (converted/total): Overall, ITT patient sample, patients with DC cardioversion excluded
Protocol: as §1, §2, §3, §4, §5, §6, §7
The intent-to-treat patient sample was analyzed for efficacy. All tests were two-sided and a p-value <0.05 was considered significant. Differences in percentages of conversion were compared among the treatment groups using the Pearson chi-square statistic. Safety analysis was conducted on the safety patient sample. Numbers and percentages of patients with adverse events were calculated for each treatment group, using MedDRA preferred terms and body systems. Descriptive statistics were summarized by treatment group for changes from baseline in QT, heart rate and blood pressure.
This first clinical study was a Multi-Center, Double-Blind, Randomized, Placebo-Controlled, Sequential Ascending Dose Groups Study to evaluate the Efficacy and Safety of Intravenous Tedisamil in the Rapid Conversion to Normal Sinus Rhythm in Patients with Atrial Fibrillation or Flutter. The active ingredient used was tedisamil dihydrochloride. The study was designed as a phase II study and executed in 35 to 40 centers in 3 to 4 countries. Study duration: Screening: up to 48 hours; treatment (in-patient): single 30-minute infusion; safety follow up: 24 hours (in-patient) with continuous telemetry and 28 day safety follow up.
The following methodology was applied: A multi-center, double-blind, randomized, placebo-controlled, sequential ascending dose groups study to evaluate the efficacy and safety of intravenous tedisamil versus placebo. The study drug was infused over 30 minutes, receiving half the dose within 10 minutes and half the dose within the remaining 20 minutes. The first patient group received 0.4 mg/kg bodyweight (bw), infused as 0.2 mg/kg bw within 10 minutes, continued with 0.2 mg/kg bw infused within 20 minutes. […]

[3] = 0.4 mg/kg iv two-step 30 minute infusion
[4] = 0.6 mg/kg iv two-step 30 minute infusion
[5] = Atrial Fibrillation, Female, 0.4 mg/kg, ITT patient sample, patients with DC cardioversion excluded
[6] = Atrial Fibrillation, Female, 0.6 mg/kg, ITT patient sample, patients with DC cardioversion excluded
[7] = Atrial Fibrillation, Male, 0.4 mg/kg, ITT patient sample, patients with DC cardioversion excluded
[8] = Atrial Fibrillation, Male, 0.6 mg/kg, ITT patient sample, patients with DC cardioversion excluded
[9] = atrial fibrillation, Female, <65 yrs, 0.4 mg/kg, ITT, DC cardioversion excluded
[10] = atrial fibrillation, Female, <65 yrs, 0.6 mg/kg, ITT, DC cardioversion excluded
[11] = atrial fibrillation, Female, >=65 yrs, 0.4 mg/kg, ITT, DC cardioversion excluded
[12] = atrial fibrillation, Female, >=65 yrs, 0.6 mg/kg, ITT, DC cardioversion excluded
[13] = atrial fibrillation, Male, <65 yrs, 0.4 mg/kg, ITT, DC cardioversion excluded
[14] = atrial fibrillation, Male, <65 yrs, 0.6 mg/kg, ITT, DC cardioversion excluded
[15] = atrial fibrillation, Male, >=65 yrs, 0.4 mg/kg, ITT, DC cardioversion excluded
[16] = atrial fibrillation, Male, >=65 yrs, 0.6 mg/kg, ITT, DC cardioversion excluded

C1CCC2(C1)C1CN(CC3CC3)CC2CN(CC2CC2)C1 [Tedisamil, N,N′-dicyclopropylmethyl-9,9-tetramethylene-3,7-diazabicyclo[3,3,1]nonane]
Conversion to NSR at any time within 2.5 hrs after the start of infusion (patients converted out of total) [1, 3]: 24 out of 52 | Conversion to NSR at any time within 2.5 hrs and remaining in NSR until 2.5 hrs after the start of infusion (patients out of total) [1, 3]: 23 out of 52 | Conversion to NSR at any time within 2.5 hrs and remaining in NSR until 2.5 hrs after the start of infusion (percentage of patients) [1, 3]: (44%) | Conversion to NSR at any time within 2.5 hrs and remaining in NSR until 24 hrs after the start of infusion (patients out of total) [1, 3]: 22 out of 42 | Conversion to NSR at any time within 2.5 hrs and remaining in NSR until 24 hrs after the start of infusion (percentage of patients) [1, 3]: (52%) | Conversion to NSR at any time within 24 hrs after the start of infusion (patients out of total) [1, 3]: 26 out of 42 | Conversion to NSR at any time within 24 hrs after the start of infusion (percentage of patients) [1, 3]: (62%) | Conversion to NSR at any time within 24 hrs and remaining in NSR until 24 hrs after the start of infusion (patients out of total) [1, 3]: 24 out of 42 | Conversion to NSR at any time within 24 hrs and remaining in NSR until 24 hrs after the start of infusion (percentage of patients) [1, 3]: (57%) | Conversion to NSR at any time within 2.5 hrs after the start of infusion (patients converted out of total) [1, 4]: 24 out of 42 | Conversion to NSR at any time within 2.5 hrs and remaining in NSR until 2.5 hrs after the start of infusion (patients out of total) [1, 4]: 24 out of 42 | Conversion to NSR at any time within 2.5 hrs and remaining in NSR until 2.5 hrs after the start of infusion (percentage of patients) [1, 4]: (57%) | Conversion to NSR at any time within 2.5 hrs and remaining in NSR until 24 hrs after the start of infusion (patients out of total) [1, 4]: 22 out of 37 | Conversion to NSR at any time within 2.5 hrs and remaining in NSR until 24 hrs after the start of infusion (percentage of patients) [1, 4]: (59%) | Conversion to NSR at any time within 24 hrs after the start of infusion (patients out of total) [1, 4]: 26 out of 37 | Conversion to NSR at any time within 24 hrs after the start of infusion (percentage of patients) [1, 4]: (70%) | Conversion to NSR at any time within 24 hrs and remaining in NSR until 24 hrs after the start of infusion (patients out of total) [1, 4]: 24 out of 37 | Conversion to NSR at any time within 24 hrs and remaining in NSR until 24 hrs after the start of infusion (percentage of patients) [1, 4]: (65%) | Conversion to NSR at any time within 2.5 hrs after start of infusion (%) [1, 5]: 35.3% | Conversion to NSR at any time within 2.5 hrs after start of infusion (converted/total) [1, 5]: 6/17 | Conversion to NSR at any time within 2.5 hrs after start of infusion (%) [1, 6]: 37.5% | Conversion to NSR at any time within 2.5 hrs after start of infusion (converted/total) [1, 6]: 6/16 | Conversion to NSR at any time within 2.5 hrs after start of infusion (%) [1, 7]: 51.4% | Conversion to NSR at any time within 2.5 hrs after start of infusion (converted/total) [1, 7]: 18/35 | Conversion to NSR at any time within 2.5 hrs after start of infusion (%) [1, 8]: 69.2% | Conversion to NSR at any time within 2.5 hrs after start of infusion (converted/total) [1, 8]: 18/26 | Conversion to NSR at any time within 2.5 hrs after start of infusion (%) [1, 9]: 40.0% | Conversion to NSR at any time within 2.5 hrs after start of infusion (converted/total) [1, 9]: 2/5 | Conversion to NSR at any time within 2.5 hrs after start of infusion (%) [1, 10]: 33.3% | Conversion to NSR at any time within 2.5 hrs after start of infusion (converted/total) [1, 10]: 1/3 | Conversion to NSR at any time within 2.5 hrs after start of infusion (%) [1, 11]: 33.3% | Conversion to NSR at any time within 2.5 hrs after start of infusion (converted/total) [1, 11]: 4/12 | Conversion to NSR at any time within 2.5 hrs after start of infusion (%) [1, 12]: 38.5% | Conversion to NSR at any time within 2.5 hrs after start of infusion (converted/total) [1, 12]: 5/13 | Conversion to NSR at any time within 2.5 hrs after start of infusion (%) [1, 13]: 50.0% | Conversion to NSR at any time within 2.5 hrs after start of infusion (converted/total) [1, 13]: 10/20 | Conversion to NSR at any time within 2.5 hrs after start of infusion (%) [1, 14]: 72.2% | Conversion to NSR at any time within 2.5 hrs after start of infusion (converted/total) [1, 14]: 13/18 | Conversion to NSR at any time within 2.5 hrs after start of infusion (%) [1, 15]: 51.4% | Conversion to NSR at any time within 2.5 hrs after start of infusion (converted/total) [1, 15]: 8/15 | Conversion to NSR at any time within 2.5 hrs after start of infusion (%) [1, 16]: 62.5% | Conversion to NSR at any time within 2.5 hrs after start of infusion (converted/total) [1, 16]: 5/8 | Percentage of patients converted to normal sinus rhythm at any time within 2.5 hours after the initiation of the infusion ([1]; 0.4 mg group): 52% | Percentage of patients converted to normal sinus rhythm at any time within 2.5 hours after the initiation of the infusion ([1]; 0.6 mg group): 60% | Conversion to NSR at any time within 2.5 hrs after start of infusion (%) ([2]; Female, 0.4 mg/kg): 31.6% | Conversion to NSR at any time within 2.5 hrs after start of infusion (converted/total) ([2]; Female, 0.4 mg/kg): 6/19 | Conversion to NSR at any time within 2.5 hrs after start of infusion (%) ([2]; Female, 0.6 mg/kg): 36.4% | Conversion to NSR at any time within 2.5 hrs after start of infusion (converted/total) ([2]; Female, 0.6 mg/kg): 8/22 | Conversion to NSR at any time within 2.5 hrs after start of infusion (%) ([2]; Male, 0.4 mg/kg): 45.2% | Conversion to NSR at any time within 2.5 hrs after start of infusion (converted/total) ([2]; Male, 0.4 mg/kg): 19/42 | Conversion to NSR at any time within 2.5 hrs after start of infusion (%) ([2]; Male, 0.6 mg/kg): 61.3% | Conversion to NSR at any time within 2.5 hrs after start of infusion (converted/total) ([2]; Male, 0.6 mg/kg): 19/31 | Gender difference in conversion rate ([2]; first study (Phase II), tedisamil dihydrochloride): male patients show a higher conversion rate compared to women | Conversion rates on extension of infusion beyond the times indicated ([2]; in vivo): did not produce higher conversion rates | Average time to cardioversion after the start of tedisamil administration ([2]; patients with atrial fibrillation or flutter of up to 48 hours duration, iv two-step infusion): 35 min | Conversion of atrial fibrillation and flutter to NSR (in words) ([2]; two-step infusion regimen): effective in conversion of atrial fibrillation and flutter to NSR
